Seven substances from patent US20110143948A1, “MOLECULAR SIGNATURES AND BIOMARKERS ASSOCIATED WITH MELANOMA AND METHODS OF USE THEREOF” (priority 2008, published 2011) can be followed below.

The subject of this series is ncRNAs (SEQ ID NO 28-89). Put plainly: ncRNA arrays of melanocytes, keratinocytes, normal skin, melanoma cell lines and patient samples. On the set-up: species or system human. To be noted: for ncRNA array expression, patient 2: melanoma patient 2 sample compared to normal skin; for ncRNA array expression, patient 3: melanoma patient 3 sample compared to normal skin; for ncRNA array expression, patient 4: melanoma patient 4 sample compared to normal skin; for ncRNA array expression, patient 5: melanoma patient 5 sample compared to normal skin; for ncRNA array expression, patient 6: melanoma patient 6 sample compared to normal skin; for ncRNA array expression, patient 7: melanoma patient 7 sample compared to normal skin; for ncRNA array expression, patient 8: melanoma patient 8 sample compared to normal skin; for ncRNA array expression, patient 9: melanoma patient 9 sample compared to normal skin; for ncRNA array expression, patient 10: melanoma patient 10 sample compared to normal skin; for ncRNA array expression, patient 19: melanoma patient 19 sample compared to normal skin; for ncRNA array expression, patient 20: melanoma patient 20 sample compared to normal skin; for ncRNA array expression, patient 21: melanoma patient 21 sample compared to normal skin; for ncRNA array expression, patient 22: melanoma patient 22 sample compared to normal skin; for ncRNA array expression, patient 23: melanoma patient 23 sample compared to normal skin; for ncRNA array expression, patient 24: melanoma patient 24 sample compared to normal skin; for ncRNA array expression, patient 25: melanoma patient 25 sample compared to normal skin; for ncRNA array expression, patient 26: melanoma patient 26 sample compared to normal skin; for ncRNA array expression, patient 27: melanoma patient 27 sample compared to normal skin; for ncRNA array expression, patient 28: melanoma patient 28 sample compared to normal skin; for ncRNA array expression, patient 29: melanoma patient 29 sample compared to normal skin; for ncRNA array expression, patient 30: melanoma patient 30 sample compared to normal skin. Put shortly: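 Differential ncRNA expression was defined against melanocytes or normal skin after subtracting keratinocyte-specific signals, with confirmation by qRT-PCR and Northern blot. Samples were melanoma cell lines, patient tumours, melanocytes, keratinocytes and normal skin, hybridised to a >10,000-probe (>200 nt) ncRNA array that also carries RefSeq mRNA probes.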

Turning to “SEQ ID NO 65 (CACCGTTTTACTTTTTGTGGGGAGGGGAAGCAGTATCAAAATTTCTTCGGGCGCCAGAAC; listed as DNA, chemistry not given here; listed as Homo sapiens)”, the “ncRNA array expression, patient 2” value is −1.177; the “ncRNA array expression, patient 3” value is given as −1.344; the “ncRNA array expression, patient 4” value is recorded as −1.215; the “ncRNA array expression, patient 5” value is reported as −1.301. The “ncRNA array expression, patient 6” value is on record as −1.643; the “ncRNA array expression, patient 7” value is on record as −1.264; the “ncRNA array expression, patient 8” value is reported as −1.391; the “ncRNA array expression, patient 9” value was −1.267. Moreover, the “ncRNA array expression, patient 10” value is recorded as −0.3046; the “ncRNA array expression, patient 19” value is listed as −0.6567; the “ncRNA array expression, patient 20” value is reported as −1.283; the “ncRNA array expression, patient 21” value was −1.289. Besides, the “ncRNA array expression, patient 22” value is on record as −1.03; the “ncRNA array expression, patient 23” value is on record as −1.597; the “ncRNA array expression, patient 24” value is −1.241; the “ncRNA array expression, patient 25” value is recorded as −1.384. The “ncRNA array expression, patient 26” value is listed as −1.415; the “ncRNA array expression, patient 27” value is on record as −1.388; the “ncRNA array expression, patient 28” value is −1.421; the “ncRNA array expression, patient 29” value was −1.2518. For the same substance, the “ncRNA array expression, patient 30” value worked out at 0.5803.
Turning to “SEQ ID NO 66 (TCCTTTTTATCTTGCACTCAGATGGTATTTTTAGAGATGTTTCTTCAATCAAAACAAGAT; listed as DNA, chemistry not given here; listed as Homo sapiens)”, the “ncRNA array expression, patient 2” value is 2.553; the “ncRNA array expression, patient 3” value stood at 2.044; the “ncRNA array expression, patient 4” value is 2.799; the “ncRNA array expression, patient 5” value is given as 1.983. In addition, the “ncRNA array expression, patient 6” value stood at 2.127; the “ncRNA array expression, patient 7” value is given as 2.319; the “ncRNA array expression, patient 8” value worked out at 2.869; the “ncRNA array expression, patient 9” value is reported as 1.498. For the same substance, the “ncRNA array expression, patient 10” value was 1.587; the “ncRNA array expression, patient 19” value was 0.7228; the “ncRNA array expression, patient 20” value stood at 2.462; the “ncRNA array expression, patient 21” value is 2.263. Moreover, the “ncRNA array expression, patient 22” value was determined as 1.15; the “ncRNA array expression, patient 23” value is reported as 1.37; the “ncRNA array expression, patient 24” value came out at 1.434; the “ncRNA array expression, patient 25” value was 2.534. Further, the “ncRNA array expression, patient 26” value worked out at 2.984; the “ncRNA array expression, patient 27” value stood at 2.334; the “ncRNA array expression, patient 28” value came to 2.749; the “ncRNA array expression, patient 29” value was 3.271. The “ncRNA array expression, patient 30” value is −2.558.
For the substance “SEQ ID NO 67 (TTCCCTATTCCATCCTTTGATGGGTGGCCTGTTACACGTTTGGAAATAAAAACAAGTGGG; listed as DNA, chemistry not given here; listed as Homo sapiens)”, the “ncRNA array expression, patient 2” value was 2.053; the “ncRNA array expression, patient 3” value was found to be 1.721; the “ncRNA array expression, patient 4” value is reported as 0.6532; the “ncRNA array expression, patient 5” value was 4.146. Further, the “ncRNA array expression, patient 6” value is reported as 1.481; the “ncRNA array expression, patient 7” value is recorded as 2.486; the “ncRNA array expression, patient 8” value was 1.375; the “ncRNA array expression, patient 9” value is recorded as 1.111. Besides, the “ncRNA array expression, patient 10” value is on record as 3.887; the “ncRNA array expression, patient 19” value was determined as 0.7069; the “ncRNA array expression, patient 20” value was 1.071; the “ncRNA array expression, patient 21” value is recorded as 3.856. The “ncRNA array expression, patient 22” value turned out to be 1.186; the “ncRNA array expression, patient 23” value is recorded as 2.369; the “ncRNA array expression, patient 24” value was 1.045; the “ncRNA array expression, patient 25” value was 0.3622. The “ncRNA array expression, patient 26” value is recorded as 0.8179; the “ncRNA array expression, patient 27” value worked out at 1.392; the “ncRNA array expression, patient 28” value is listed as 6.659; the “ncRNA array expression, patient 29” value worked out at 2.096. Also, the “ncRNA array expression, patient 30” value is listed as −1.191.
Regarding “SEQ ID NO 68 (CAAAAAGAAATCTTGTTTACTTGTAAAAATATAGACTACCTCCTACTTGCCACCGTTAAG; listed as DNA, chemistry not given here; listed as Homo sapiens)”, the “ncRNA array expression, patient 2” value was −1.029; the “ncRNA array expression, patient 3” value is recorded as −0.899; the “ncRNA array expression, patient 4” value is given as −1.233; the “ncRNA array expression, patient 5” value was −1.828. The “ncRNA array expression, patient 6” value was −0.6441; the “ncRNA array expression, patient 7” value is on record as −2.078; the “ncRNA array expression, patient 8” value is listed as −0.8097; the “ncRNA array expression, patient 9” value was −1.121. In addition, the “ncRNA array expression, patient 10” value is reported as −1.445; the “ncRNA array expression, patient 19” value is listed as −0.5985; the “ncRNA array expression, patient 20” value is reported as −1.379; the “ncRNA array expression, patient 21” value is listed as −1.385. The “ncRNA array expression, patient 22” value is given as −0.8953; the “ncRNA array expression, patient 23” value was −0.7105; the “ncRNA array expression, patient 24” value is recorded as −1.38; the “ncRNA array expression, patient 25” value is recorded as −1.607. The “ncRNA array expression, patient 26” value is −1.329; the “ncRNA array expression, patient 27” value was −1.5151; the “ncRNA array expression, patient 28” value was −1.556; the “ncRNA array expression, patient 29” value is −1.309. Further, the “ncRNA array expression, patient 30” value is given as −0.1058.
On to “SEQ ID NO 69 (AGAGTTCGCACTGGGAAGAGTTAAAAAATAAACATTTACAAGGACGAGGAAAGCGGCCCC; listed as DNA, chemistry not given here; listed as Homo sapiens)”, for which the “ncRNA array expression, patient 2” value is recorded as −1.697; the “ncRNA array expression, patient 3” value is −1.8068; the “ncRNA array expression, patient 4” value is −1.369; the “ncRNA array expression, patient 5” value is −1.797. Besides, the “ncRNA array expression, patient 6” value is given as −0.5526; the “ncRNA array expression, patient 7” value is recorded as −1.8141; the “ncRNA array expression, patient 8” value is −1.777; the “ncRNA array expression, patient 9” value was −1.618. For the same substance, the “ncRNA array expression, patient 10” value is −1.696; the “ncRNA array expression, patient 19” value is on record as −0.9749; the “ncRNA array expression, patient 20” value was −1.422; the “ncRNA array expression, patient 21” value is recorded as −1.5966. The “ncRNA array expression, patient 22” value is on record as −0.8782; the “ncRNA array expression, patient 23” value is −0.2153; the “ncRNA array expression, patient 24” value is −1.796; the “ncRNA array expression, patient 25” value is −1.178. Also, the “ncRNA array expression, patient 26” value is reported as −1.015; the “ncRNA array expression, patient 27” value is recorded as −0.7594; the “ncRNA array expression, patient 28” value is given as −1.693; the “ncRNA array expression, patient 29” value is reported as −1.645. The “ncRNA array expression, patient 30” value is 0.8457.
With “SEQ ID NO 70 (AGTTATAGAGGAGGCTCAGGAGGATCTGGGGAAACGGGACCAGAGGGTAAGATGGGTTAT; listed as DNA, chemistry not given here; listed as Homo sapiens)”, the “ncRNA array expression, patient 2” value is on record as −1.553; the “ncRNA array expression, patient 3” value was −1.673; the “ncRNA array expression, patient 4” value is on record as −1.217; the “ncRNA array expression, patient 5” value is −1.521. Further, the “ncRNA array expression, patient 6” value was −1.483; the “ncRNA array expression, patient 7” value is on record as −1.751; the “ncRNA array expression, patient 8” value is recorded as −2.182; the “ncRNA array expression, patient 9” value is −1.366. For the same substance, the “ncRNA array expression, patient 10” value is −0.6931; the “ncRNA array expression, patient 19” value is listed as −1.792; the “ncRNA array expression, patient 20” value is reported as −1.615; the “ncRNA array expression, patient 21” value is on record as −1.1. Moreover, the “ncRNA array expression, patient 22” value is listed as −1.351; the “ncRNA array expression, patient 23” value is given as −0.7876; the “ncRNA array expression, patient 24” value is recorded as −1.593; the “ncRNA array expression, patient 25” value is on record as −1.473. Further, the “ncRNA array expression, patient 26” value is −1.495; the “ncRNA array expression, patient 27” value is on record as −1.848; the “ncRNA array expression, patient 28” value is listed as −1.549; the “ncRNA array expression, patient 29” value was −1.625. The “ncRNA array expression, patient 30” value is on record as −0.6666.
“SEQ ID NO 71 (AAAATTCCAAGAGGGCCTTTTCGAATAGACGCATGAACGGTGTTTGTGTCTGGATCGTCC; listed as DNA, chemistry not given here; listed as Homo sapiens)”: the “ncRNA array expression, patient 2” value turned out to be 0.7413; the “ncRNA array expression, patient 3” value came out at 0.6126; the “ncRNA array expression, patient 4” value came out at 1.336; the “ncRNA array expression, patient 5” value amounted to 2.628. Further, the “ncRNA array expression, patient 6” value came out at 1.002; the “ncRNA array expression, patient 7” value worked out at 1.936; the “ncRNA array expression, patient 8” value turned out to be 0.7221; the “ncRNA array expression, patient 9” value was 0.1592. Moreover, the “ncRNA array expression, patient 10” value is recorded as 1.787; the “ncRNA array expression, patient 19” value was 3.439; the “ncRNA array expression, patient 20” value worked out at 1.577; the “ncRNA array expression, patient 21” value came to 1.245. The “ncRNA array expression, patient 22” value is on record as 1.105; the “ncRNA array expression, patient 23” value is 0.258; the “ncRNA array expression, patient 24” value is listed as 2.527; the “ncRNA array expression, patient 25” value is 2.034. Moreover, the “ncRNA array expression, patient 26” value is given as 1.058; the “ncRNA array expression, patient 27” value is given as 1.849; the “ncRNA array expression, patient 28” value is 0.926; the “ncRNA array expression, patient 29” value amounted to 2.387. Moreover, the “ncRNA array expression, patient 30” value is listed as −2.464.
